Earlier results as cited in US12016331B2, “Microemulsions and uses thereof as delivery systems” (ARCHER DANIELS MIDLAND COMPANY, priority 2012, dated 2024).

Row | SMILES | LD 50 value, dermal toxicity
1 | CC(O)C(=O)O (centres unmarked) [lactic acid] | greater than 3000 mg/Kg
2 | CCC(=O)O [propionic acid] | 500 mg/kg
